Bridge positions count the residues as written; N and C are the ends. Square brackets hold non-standard residues; d marks the D form. Peptide text beside a SMILES is read from it. * marks the point of attachment. Phe(4-COOH) = N[C@@H](Cc1ccc(C(=O)O)cc1)C(=O)O; Bip = N[C@@H](Cc1ccc(-c2ccccc2)cc1)C(=O)O; Phe(3-Me) = Cc1cccc(C[C@H](N)C(=O)O)c1; Val(3-OH) = CC(C)(O)[C@H](N)C(=O)O; 4Pal = N[C@@H](Cc1ccncc1)C(=O)O; 2Thi = N[C@@H](Cc1cccs1)C(=O)O; Cha = N[C@@H](CC1CCCCC1)C(=O)O; NMeNle = CCCC[C@H](NC)C(=O)O; Carboxymethyl = O=C(O)C*; NMeA = CN[C@@H](C)C(=O)O; Orn = NCCC[C@H](N)C(=O)O; Dab = NCC[C@H](N)C(=O)O; Piv = CC(C)(C)C(=O)*
biological target: T1, PE-labeled human PD-L1-Ig binding to Jurkat cell line over-expressing human PD-1 (Jurkat-PD-1) (Homo sapiens, UniProt Q15116); test: Jurkat-PD-1 Cell Binding High-Content Screening Assay (CBA): Method 1; conditions: Jurkat-hPD-1 cells, PE-labeled PD-L1-Ig 20 nM final; read-out: Jurkat HPDL1 PD1 IC50 (uM) (Method 1)
T1 construct: expressed in transfected cells; host or cells: Jurkat
T1 sequence (Q15116 25-288): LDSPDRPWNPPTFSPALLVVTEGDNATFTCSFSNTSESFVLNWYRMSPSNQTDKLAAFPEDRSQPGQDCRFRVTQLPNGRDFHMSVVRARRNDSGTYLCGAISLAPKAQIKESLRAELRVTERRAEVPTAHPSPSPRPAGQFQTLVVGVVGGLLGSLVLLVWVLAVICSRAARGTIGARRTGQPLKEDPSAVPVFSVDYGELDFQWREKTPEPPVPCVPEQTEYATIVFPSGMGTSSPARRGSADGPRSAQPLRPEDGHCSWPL

| Compound | IC50 [µM] |
| --- | --- |
| CC[C@H](C)[C@@H]1NC(=O)[C@H](Cc2ccc(-c3ccccc3)cc2)NC(=O)[C@H](C(C)(C)O)NC(=O)[C@H](Cc2cccc(C)c2)NC(=O)[C@H](CC(=O)O)NC(=O)[C@H](Cc2ccc(O)cc2)NC(=O)[C@H](CC(N)=O)NC(=O)CSC[C@@H](C(=O)N[C@@H](CCN)C(N)=O)NC(=O)[C@H]([C@@H](C)O)NC(=O)[C@H](C(C)(C)O)NC(=O)[C@H](CC(C)C)NC(=O)[C@H](CCN)NC(=O)[C@@H](CC(C)C)NC(=O)[C@H](C)N(C)C1=O [Compound 1687] ({CH2CO}-NYD[Phe(3-Me)][Val(3-OH)][Bip]I[NMeA][dL][Dab]L[Val(3-OH)]TC[Dab]-NH2; thioether N-14) | 0.11 |
| Cc1cccc(C[C@@H]2NC(=O)[C@H](CC(=O)O)NC(=O)[C@H](Cc3ccncc3)NC(=O)[C@H](Cc3ccc(OCC(=O)O)cc3)NC(=O)CSC[C@@H](C(=O)N[C@@H](CC(=O)O)C(N)=O)NC(=O)[C@H](CO)NC(=O)[C@H](C(C)C)NC(=O)[C@H](CC(C)C)NC(=O)[C@H](CC(N)=O)NC(=O)[C@@H](CC(C)C)NC(=O)[C@H](C)N(C)C(=O)[C@H](C(C)C)NC(=O)[C@H](Cc3ccc(-c4ccccc4)cc3)NC(=O)[C@H](CC(C)C)NC2=O)c1 [Compound 1601] ({CH2CO}-Y(Carboxymethyl)[4Pal]D[Phe(3-Me)]L[Bip]V[NMeA][dL]NLVSCD-NH2; thioether N-14) | 0.02 |
| Cc1cccc(C[C@@H]2NC(=O)[C@H](CC(=O)O)NC(=O)[C@H](Cc3ccc(OCC(=O)O)cc3)NC(=O)[C@H](Cc3cccs3)NC(=O)CSC[C@@H](C(=O)N[C@@H](CCNC(=O)C(C)(C)C)C(N)=O)NC(=O)[C@H](Cc3cnc[nH]3)NC(=O)[C@H](C(C)(C)O)NC(=O)[C@H](CC3CCCCC3)NC(=O)[C@H](CCN)NC(=O)[C@@H](CC(C)C)NC(=O)[C@H](C)N(C)C(=O)[C@H](Cc3ccc(OCC(=O)O)cc3)NC(=O)[C@H](Cc3ccc(-c4ccccc4)cc3)NC(=O)[C@H](Cc3ccc(C(=O)O)cc3)NC2=O)c1 [Compound 2166] ({CH2CO}-[2Thi]Y(Carboxymethyl)D[Phe(3-Me)][Phe(4-COOH)][Bip]Y(Carboxymethyl)[NMeA][dL][Dab][Cha][Val(3-OH)]HC[Dab](Piv)-NH2; thioether N-14) | 0.02 |

More lines, in order of falling IC50, values ahead:

| IC50 [µM] | Compound |
| --- | --- |
| 0.43 | CC(C)C[C@@H]1NC(=O)[C@H](Cc2c[nH]c3ccccc23)NC(=O)[C@H](CC(=O)O)NC(=O)[C@H](Cc2ccc(O)cc2)NC(=O)[C@H](Cc2ccccc2)NC(=O)CSC[C@@H](C(=O)NCC(N)=O)NC(=O)[C@H](CO)NC(=O)[C@H](C(C)C)NC(=O)[C@H](CC(C)C)NC(=O)[C@H](CC(N)=O)NC(=O)[C@@H](CO)NC(=O)[C@H](C)N(C)C(=O)[C@H](C(C)C)NC(=O)[C@H](Cc2ccc(-c3ccccc3)cc2)NC1=O [Compound 1819] ({CH2CO}-FYDWL[Bip]V[NMeA][dS]NLVSCG-NH2; thioether N-14) |
| 0.04 | CC(C)C[C@@H]1NC(=O)[C@H](CCCN)NC(=O)[C@@H](CC(C)C)NC(=O)[C@H](C)N(C)C(=O)[C@H](CCCN)NC(=O)[C@H](Cc2ccc(-c3ccccc3)cc2)NC(=O)[C@H](C(C)C)NC(=O)[C@H](Cc2c[nH]c3ccccc23)NC(=O)[C@H](CC(=O)O)NC(=O)[C@H](Cc2ccc(O)cc2)NC(=O)[C@H](CC(N)=O)NC(=O)CSC[C@@H](C(=O)N[C@@H](C)C(N)=O)NC(=O)[C@H](CO)NC(=O)[C@H](C(C)C)NC1=O [Compound 1251] ({CH2CO}-NYDWV[Bip][Orn][NMeA][dL][Orn]LVSCA-NH2; thioether N-14) |
| 0.01 | CCCC[C@H]1C(=O)N[C@H](CC(C)C)C(=O)N[C@@H](CCN)C(=O)N[C@@H](CC(C)C)C(=O)N[C@@H](C(C)C)C(=O)N[C@@H]([C@@H](C)O)C(=O)N[C@H](C(=O)N[C@@H](C)C(N)=O)CSCC(=O)N[C@@H](CC(N)=O)C(=O)N[C@@H](Cc2ccc(O)cc2)C(=O)N[C@@H](CC(=O)O)C(=O)N[C@@H](Cc2c[nH]c3ccccc23)C(=O)N[C@@H](C(C)C)C(=O)N[C@@H](Cc2ccc(-c3ccccc3)cc2)C(=O)N[C@@H](C(C)C)C(=O)N1C [Compound 1365] ({CH2CO}-NYDWV[Bip]V[NMeNle][dL][Dab]LVTCA-NH2; thioether N-14) |

Reference: patent US20240409585A1, “MACROCYCLIC IMMUNOMODULATORS” (priority 2021, published 2024)
